Data set [1] relates to MV3 (human melanoma). The experiment in a line: In vitro tumour cell growth inhibition (MTT), MV3. Format: cell-based. Conditions: 96 h; for IC50: Homo sapiens. On the procedure:
(§1) Temozolomide (white powder), temozolomide acid (white powder) and temozolomide-8-carboxylate hexyl (white scale crystal) were made in house. For the estimation of in vitro tumour cell growth inhibition, MV3 (human melanoma), M14 (human melanoma), B16 and B16-BL6 (mouse melanoma), SHG-44, TJ899 and TJ905 (human glioma), MCF-7 (human breast), HCT-8 (human colon), A549 (human non small lung), Bel7402 (human hepatocellulor), and BGC-823 (human stomach) were used. All tumour cells were cultured in RPMI-1640 medium supplemented with 10% fetal bovine serum (FBS) at 37° C. in a humidified 5% CO2 incubator.
(§2) After being harvested from culture flasks, a cell suspension of 1×10^4/ml was made by using 1640 RPMI medium supplemented with 10% fetal bovine serum. 100 μl (contains 1000 tumour cells) of the cell suspension was seeded per well of 96-well flat-bottom Costar culture plates at 37° C. in a humidified 5% CO2 incubator for 24 hrs before introducing drugs. Each tested compounds was made for five different concentrations and 100 μl of the each concentration was introduced into parallel three wells; control wells were added with 100 μl of plain medium alone; fluorouracil (a chemotherapeutic antitumour drug) was used as the positive control. Cells were then incubated for 96 h. Proliferative response and cell death were determined using MTT (3-(4,5-dimethylthiazolyl)-2,5-diphenyl-tetrazolium bromide) assay.
(§3) MTT assay: Following incubation of cells with the tested compounds for 96 h, 100 μl of 0.4 mg/ml MTT in RPMI 1640 was added to each well and the plate was incubated at 37° C. for 4 h. The plate was then centrifuged and followed by removal of medium. 150 μl of DMSO was then added to dissolve formazan crystal. DMSO-added plates were placed on a plate shaker for 5 min and absorbance was measured spectrophotometrically at 540 nm (with reference wavelength at 450 nm) using a Benchmark microtiter plate reader (Bio-Rad 550, Bio-Rad Laboratories, CA, U.S.A.).
(§4) The IC50 was calculated from the curve of the tested compound concentrations against the inhibition rate of the tumour cells. Table 1 summarized the experiment results by using six human cancer cell lines, HCT-8 (colon carcinoma), A549 (non small lung carcinoma), MCF-7 (breast), Bel7402 (hepatocellulor carcinoma), BGC-823 (stomach adenocarcinoma), and MV3 (melanoma). Table 2 summarized the results from the experiment results by using two human melanoma cell lines, MV3 and M14, two mouse melanoma cell lines, B16 and B16-BL6, and three human glioma cell lines, TJ899, SHG-44 and TJ905.

Data set [2] relates to M14 (human melanoma). The experiment in a line: In vitro tumour cell growth inhibition (MTT), M14. Format: cell-based. Conditions: Table 2 experiment, 96 h. On the procedure: as §1, §2, §3, §4
Data set [3] concerns B16 (mouse melanoma). The experiment in a line: In vitro tumour cell growth inhibition (MTT), B16. Format: cell-based. Conditions: Table 2 experiment, 96 h. On the procedure: as §1, §2, §3, §4
Data set [4] relates to B16-BL6 (mouse melanoma). Kind of data set: In vitro tumour cell growth inhibition (MTT), B16-BL6. To be noted: 96 h. Format: cell-based. On the procedure: as §1, §2, §3, §4
In data set [5] the test system is TJ899 (human glioma). Kind of data set: In vitro tumour cell growth inhibition (MTT), TJ899. Format: cell-based. To be noted: Table 2 experiment, 96 h. The protocol: as §1, §2, §3, §4
The test system of data set [6] is SHG-44 (human glioma). Kind of data set: In vitro tumour cell growth inhibition (MTT), SHG-44. Format: cell-based. To be noted: 96 h. On the procedure: as §1, §2, §3, §4
Data set [7] deals with TJ905 (human glioma). Kind of data set: In vitro tumour cell growth inhibition (MTT), TJ905. Format: cell-based. To be noted: Table 2 experiment, 96 h. The protocol:
as §1, §2, §3, §4

The test system of data set [8] is MCF-7 (human breast). The experiment in a line: In vitro tumour cell growth inhibition (MTT), MCF-7. Format: cell-based. Conditions: MCF7, Table 1 experiment, 96 h. The protocol: as §1, §2, §3
(§5) The IC50 was calculated from the curve of the tested compound concentrations against the inhibition rate of the tumour cells. […]

Data set [9] relates to Bel7402 (human hepatocellulor). Kind of data set: In vitro tumour cell growth inhibition (MTT), Bel-7402. Format: cell-based. To be noted: Table 1 experiment, 96 h. On the procedure:
as §1, §2, §3, §5

The test system of data set [10] is A549 (human non small lung). Kind of data set: In vitro tumour cell growth inhibition (MTT), A549. Format: cell-based. To be noted: Table 1 experiment, 96 h. On the procedure: as §1, §2, §3, §5
Data set [11] deals with HCT-8 (human colon). Kind of data set: In vitro tumour cell growth inhibition (MTT), HCT-8. Format: cell-based. Conditions: Table 1 experiment, 96 h. On the procedure:
as §1, §2, §3, §5

Data set [12] relates to BGC-823 (human stomach). The experiment in a line: In vitro tumour cell growth inhibition (MTT), BGC-823. Format: cell-based. To be noted: Table 1 experiment, 96 h. On the procedure: as §1, §2, §3, §5
Data set [13] can be described thus: Solubility in 10% v/v propylene glycol. Conditions: ambient conditions, stirred 5 hours; for solubility at 5 h: 10% v/v propylene glycol aqueous solution, aqueous with cosolvent or surfactant or cyclodextrin, thermodynamic from solid, read-out: Solubility, Concentration. Format: physicochemical. On the procedure:
The potential of temozolomide esters used as topical and transdermal prodrugs is first proven through studies of their solubility. That is a decreased trend of solubility in an aqueous solution with increase of the length of the ester hydrocarbon alkyl chain of the temozolomide esters. It is clear the solubility constantly decreases from the methyl ester to the octyl ester, while temozolomide itself is 3.0 mg/ml similar to that of the methyl ester. […] Similarly to the esters, the solubility of the temozolomide amide products in the aqueous solution is considerably lower than that of temozolomide.
The solubility of temozolomide and the temozolomide esters was determined in 10% v/v propylene glycol by stirring an excess of the solid products at room temperature for 5 hours. The mixtures were then filtered, diluted with sample solvent and analysed using HPLC.

A short description of data set [14]: In vitro permeation, Franz diffusion cell, silicone membrane. Format: in vitro ADME. Conditions: 37° C., 8 h. The source says: Jacketed Franz-type diffusion cells were used throughout the study and the barrier (12) (skin or silicone membrane) was mounted between the two chambers (14, 16) (2.8–3.4 cm^2 available surface area) with the dermal side in contact with the receiver solution (FIG. 2). The diffusion chambers (10) comprised a barrier of skin or silicone membrane (12) mounted between two chambers (14, 16). A cap (18) formed the donor compartment (14). The second receptor compartment (16) contained a receptor cell (20) with a stirring bar (22), sampling port (24) and cover (26). The stirring bar (22) was stirred by means of a magnet plate (28) having a rotating magnet. The receptor compartment comprised a water jacket (30) having a water inlet (32) and a water outlet (34).
Three types of materials were used in permeation studies. • 1. Silicone membrane (Silastic Medical Grade, 500-5, Dow Corning 0.005 in thick) was cut into circular sections (2 cm diameter) and washed with double distilled water prior to use. • 2. Full-thickness rat skin was obtained from Male Wistar rats aged 10 to 12 weeks and weighing 250 to 300 g, which were sacrificed by cervical dislocation, the abdomen shaved and the intact skin removed by dissection. Following removal of fat tissue, the skin was cut into circular pieces and used immediately. • 3. Samples of adult human epidermis were purchased from the Stephen Kirby Skin Bank (UK). The samples were from the leg, were stored at −18° C. and used within one week. Experiments
The membrane (as detailed above) was mounted on the diffusion cell (10), on which the surface area available for diffusion of each cell was about 2.8–3.4 cm^2. The cell cap (18) was placed on the membrane (12), and it was sealed with Parafilm® connecting the cell cap, membrane, and receptor cell. The capacity of each receptor cell was around 25–26 ml, which was filled with receptor solution and was completely in contact with the membrane sheet. During the course of experiment, the solution was continuously stirred by teflon-coated magnetic bar (22) placed in the cell (20). The temperature was maintained at 37° C. by a thermostatic water pump that circulated the water through the jacket (30) surrounding the cell body. The system was allowed to equilibrate under these conditions for half an hour. Finally, the prepared sample solution (2 ml) was added into the donor cap cell, and it was sealed with Parafilm® to minimize the evaporation of donor solution. 1 ml of receptor solution was removed every 30 minutes for 5 hours and then every 60 minutes for a further 3 hours. The volumes withdrawn were always replaced with equal volumes of fresh receptor solution to maintain constant volume. The concentration of each sample solution was determined by using HPLC.
For every sample, six determinations were performed on human and rat skin, and three determinations were carried out through artificial silicone membrane.
As stated above, after the removal of receptor solution, the receiver compartment was refilled with an identical volume of receptor fluid. This causes of the dilution of receptor solution leading to an under determination of the sample concentration. As a consequence, it was necessary to mathematically correct each successive sample concentrations, in the present invention, which was determined by applying the following equation:
[formula] where Ct is the actual current concentration of drug in the receptor phase at time t, Cmt is the apparent (i.e. measured) current concentration of drug in the receptor phase, Vs is the sample volume withdrawn for analysis, Vr is the volume of receptor solution, and ΣCm is the summed total of the previous measured concentrations.
Finally, the amount of drug penetrating the skin per unit area was calculated by dividing the obtained concentrations by the surface area available for diffusion cell and this value was different for each individual cell. […]

≈ marks a conversion by molar mass, not a printed value.

As for `O=NN(CCCl)C(=O)NCCCl` [Carmustine], the half-inhibitory concentration (IC50) (as a rule, the midpoint of a concentration-inhibition curve) in [1] (Table 2 experiment (separate)) stood at 6.35 µg/mL (≈ 29.7 µM); in [2] (Homo sapiens), 28.7 µg/mL (≈ 134 µM); in data set [3] (Mus musculus), 7.75 µg/mL (≈ 36.2 µM); in data set [4] (Mus musculus, B16-BL6, Table 2 experiment), 13.1 µg/mL (≈ 61.3 µM); in data set [5] (Homo sapiens), 54.2 µg/mL (≈ 253 µM); in data set [6] (Homo sapiens, SHG-44, Table 2 experiment), 7.2 µg/mL (≈ 33.6 µM). This molecule also registered an IC50 in data set [7] (Homo sapiens) of 67.3 µg/mL (≈ 314 µM).
`CN(C)/N=N/c1[nH]cnc1C(N)=O` [Darcabazine]: the “IC50 MV3” value in data set [1] (Table 2 experiment (separate)) amounted to 0.647 µg/mL (≈ 3.55 µM). In addition, the “IC50 M14” value in data set [2] is 0.558 µg/mL (≈ 3.06 µM). In addition, the “IC50 B16” value in data set [3] was 10.000 µg/mL (≈ 54.9 µM). Further, in data set [4] (Table 2 experiment), the “IC50 B16-BL6” value came to 61.765 µg/mL (≈ 339 µM). The “IC50 TJ899” value in data set [5] was found to be 5.600 µg/mL (≈ 30.7 µM). Besides, the “IC50 SHG-44” value in [6] (Table 2 experiment) was 1.261 µg/mL (≈ 6.92 µM). For the same molecule, in data set [7], the “IC50 TJ905” value stood at 6.860 µg/mL (≈ 37.7 µM).
In the case of `O=c1[nH]cc(F)c(=O)[nH]1` [Fluorouracil, fluorouracil, reference compound], the IC50 came to 0.427 µg/mL (≈ 3.28 µM) in [1] (Table 1 experiment); 0.629 µg/mL (≈ 4.84 µM) in data set [8]; 0.495 µg/mL (≈ 3.81 µM) in data set [9]; 0.126 µg/mL (≈ 0.969 µM) in data set [10]; 0.606 µg/mL (≈ 4.66 µM) in data set [11]; 0.722 µg/mL (≈ 5.55 µM) in [12].
Take `CCOC(=O)c1ncn2c(=O)n(C)nnc12` [Temozolomide ethyl ester, Ethyl 3,4-dihydro-3-methyl-4-oxoimidazo[5,1-d]-1,2,3,5-tetrazine-8-carboxylate]: the solubility at 5 h in data set [13] came to 2500 µg/mL (≈ 11200 µM). Moreover, the “Permeation through synthetic silicone membrane” value in [14] (FIGS. 3-5) is listed as “can not pass through the synthetic membrane easily”.
In the case of `CC(C)NC(=O)c1ncn2c(=O)n(C)nnc12` [Temozolomide isopropyl amide, 3-Methyl-N-(iso-propyl)-4-oxoimidazo[5,1-d]-1,2,3,5-tetrazine-8-carboxamide], the solubility at 5 h in [13] is 2800 µg/mL (≈ 11900 µM).
For the molecule `CCCCOC(=O)c1ncn2c(=O)n(C)nnc12` [Temozolomide n-butyl ester, n-Butyl 3,4-dihydro-3-methyl-4-oxoimidazo[5,1-d]-1,2,3,5-tetrazine-8-carboxylate], the solubility at 5 h in data set [13] turned out to be 1400 µg/mL (≈ 5570 µM). Further, the “Permeation through synthetic silicone membrane” value in [14] (FIGS. 3-5) is given as “passed through the membrane far more efficiently”.
For the molecule `CCCCCCCCOC(=O)c1ncn2c(=O)n(C)nnc12` [Temozolomide n-octyl ester, n-Octyl 3,4-dihydro-3-methyl-4-oxoimidazo[5,1-d]-1,2,3,5-tetrazine-8-carboxylate], the solubility at 5 h in [13] is 300 µg/mL (≈ 976 µM). In addition, the “Permeation through synthetic silicone membrane” value in [14] (FIGS. 3-5, listed as n-octyl ester) was “passed through the membrane far more efficiently”; in [14] (FIGS. 3-5, listed as octyl ester), “significantly less than the hexyl ester”.
Take `CCCOC(=O)c1ncn2c(=O)n(C)nnc12` [Temozolomide n-propyl ester, n-Propyl 3,4-dihydro-3-methyl-4-oxoimidazo[5,1-d]-1,2,3,5-tetrazine-8-carboxylate]: the solubility at 5 h in data set [13] amounted to 2000 µg/mL (≈ 8430 µM). In data set [14] (FIGS. 3-5), the “Permeation through synthetic silicone membrane” value is “passed through the membrane far more efficiently”.
Take `CCC(C)NC(=O)c1ncn2c(=O)n(C)nnc12` (centres unmarked) [Temozolomide sec-butyl amide]: the “Solubility, Concentration” value in [13] amounted to 1800 µg/mL (≈ 7190 µM).
With `Cn1nnc2c(C(=O)NC(C)(C)C)ncn2c1=O` [Temozolomide t-butyl amide, 3-Methyl-N-(tert-butyl)-4-oxoimidazo[5,1-d]-1,2,3,5-tetrazine-8-carboxamide], the solubility at 5 h in [13] came out at 1400 µg/mL (≈ 5590 µM).
